Measurements as given in patent publication US20080318954A1, “Compounds” (Cyclacel Limited, priority 2004, published 2008).

Key:
CDK4/cyclin D1 = biological target: T1, CDK4/cyclin D1 (Homo sapiens, UniProt P11802); experiment: CDK/cyclin kinase assay, CDK4/cyclin D1; format: biochemical
T1 construct: His6 (N); made in house; host or cells: CDK4: Sf9 insect cells (baculovirus); Cyclin D1: E. coli, Sf9
Procedure: CDK4/cyclin D1, CDK1/cyclin B, CDK2/cyclin E, CDK2/cyclin A, CDK9/cyclin T1 and CDK7/cyclin H, all with a His6 tag on the N-terminus, were expressed in Sf9 insect cells using an appropriate baculovirus construct. Sf9 culture (1.6×10^6 cells/mL) was infected (MOI of 3) for two days. The cells were harvested by low speed centrifugation and the protein was purified from the insect cell pellet by metal affinity chromatography. In short: the insect cell pellet was lysed in Buffer A (10 mM Tris-HCl pH 8.0, 150 mM NaCl, 0.02% NP-40, 5 mM β-mercaptoethanol, 20 mM NaF, 1 mM Na3VO4, and Sigma Protease Inhibitor Cocktail) by sonication. The soluble fraction was cleared by centrifugation and loaded onto Ni-NTA-Agarose (Qiagen). Non-bound protein was washed off with 300 mM NaCl, 5-15 mM imidazole in buffer A and the bound protein was eluted with buffer A supplemented with 250 mM imidazole. The purified proteins were extensively dialyzed against storage buffer (20 mM HEPES pH 7.4, 50 mM NaCl, 2 mM DTT, 1 mM EDTA, 1 mM EGTA, 0.02% NP-40, 10% v/v glycerol) and stored at −70° C.
Compounds were investigated for their CDK2/cyclin E, CDK2/cyclin A, CDK1/cyclin B, and CDK4/cyclin D1 inhibitory activity. His6-tagged recombinant human cyclin-dependent kinases CDK1/cyclin B1, CDK2/cyclin E, CDK2/cyclin A, and CDK4 were expressed in sf9 insect cells using a baculovirus expression system. Recombinant cyclin D1 was expressed in E. coli. Proteins were purified by metal chelate affinity chromatography to greater than 90% homogeneity. Kinase assays were performed in 96-well plates using recombinant CDK/cyclins. Assays were performed in assay buffer (25 mM β-glycerophosphate, 20 mM MOPS, 5 mM EGTA, 1 mM DTT, 1 mM […], pH 7.4), into which were added 2-4 μg of active enzyme with appropriate substrates (purified histone H1 for CDK1 and CDK2, recombinant GST-retinoblastoma protein (residues 773-928) for CDK4). The reaction was initiated by addition of Mg/ATP mix (15 mM MgCl2+100 μM ATP with 30-50 kBq per well of [γ-^32P]-ATP) and mixtures incubated for 10-45 min, as required, at 30° C. Reactions were stopped on ice, followed by filtration through p81 or GF/C filterplates (for CDK4) (Whatman Polyfiltronics, Kent, UK). After washing 3 times with 75 mM aq orthophosphoric acid, plates were dried, scintillant added and incorporated radioactivity measured in a scintillation counter (TopCount, Packard Instruments, Pangbourne, Berks, UK). Compounds for kinase assays were made up as 10 mM stocks in DMSO and diluted into 10% DMSO in assay buffer. Data was analysed using curve-fitting software (GraphPad Prism version 3.00 for Windows, GraphPad Software, San Diego Calif. USA) to determine IC50 values (concentration of test compound which inhibits kinase activity by 50%).

[1] = system: glycogen synthase activity in HEK293 cells; experiment: Glycogen synthase (GS) assay in HEK293 cells; format: cell-based, human
Procedure: Cells on 10 cm dishes (Human Embryonic Kidney (HEK) 293 cells, L6 rat myocytes, or 3T3 mouse adipocytes) were treated with different concentrations of GSK3-inhibitors or DMSO vehicle for 90 min. Incubation medium was removed and cells were washed with ice-cold phosphate-buffered saline (PBS) prior to lysis on ice in 50 mM HEPES, pH 7.5, 10 mM EDTA, 100 mM NaF, 5 mM DTT, protease inhibitor cocktail (Sigma). After a freeze/thaw cycle the samples are sonicated for 10 sec and centrifuged at 15,000 g for 10 min at 4° C. Lysate supernatants were snap-frozen on liquid nitrogen and stored at −80° C. Lysates were assayed for glycogen synthase activity in buffer (50 mM Tris-HCl, pH 7.8, 20 mM EDTA, 25 mM NaF, 5 mM DTT, 1% glycogen, 0.3 mM UDP-glucose and 0.06 μCi of [^14C]-UDP-glucose in the presence of 0.1 or 10 mM glucose-6-phosphate. The reaction was carried out for 30 min at 30° C. 70 μL of the reaction mixture (total volume 90 μL) were transferred to a GFC 96-well filter plate (bottom sealed with foil), containing 140 μL 96% ethanol. The GFC plate was incubated for 1 h on ice and than washed with 66% ethanol. To each well 100 μL scintillant liquid was added and the radioactivity of the samples was measured using a scintillation counter (Topcount, HP). Data are expressed as -fold increase in glycogen synthase activity ratios over those of control samples.

SAPK2a/p38 = biological target: T2, SAPK2a/p38 (Homo sapiens, UniProt Q16539); experiment: Protein kinase panel selectivity screen, SAPK2a/p38; format: biochemical; conditions: 1 μM compound; [ATP] 50 μM
T2 construct: Dundee University (panel)
T2 sequence (Q16539 whole entry): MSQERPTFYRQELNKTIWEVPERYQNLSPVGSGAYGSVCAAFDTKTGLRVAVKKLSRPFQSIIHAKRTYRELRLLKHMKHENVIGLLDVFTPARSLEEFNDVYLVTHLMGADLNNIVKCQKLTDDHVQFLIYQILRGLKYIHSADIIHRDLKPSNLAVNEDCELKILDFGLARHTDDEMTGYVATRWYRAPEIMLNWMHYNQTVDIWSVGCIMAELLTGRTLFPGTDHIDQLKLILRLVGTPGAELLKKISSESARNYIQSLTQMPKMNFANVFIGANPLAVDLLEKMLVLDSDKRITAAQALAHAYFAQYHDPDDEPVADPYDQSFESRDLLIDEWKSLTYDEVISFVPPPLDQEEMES
Procedure: (§1) The names of the 29 kinases comprising the selectivity screen, as well as the ATP concentrations used in each kinase case, are given in Table 5. The kinase assays were carried out as described previously.
(§2) Compound XIV at a concentration of 1 μM was screened in the 29-kinase panel (Dundee University) and the results are shown bellow in Table 6.

GSK3b = biological target: T3, GSK3b (Homo sapiens, UniProt P49841); experiment: Protein kinase panel selectivity screen, GSK3b; format: biochemical; conditions: 1 μM compound
T3 construct: Dundee University (panel)
T3 sequence (P49841 whole entry, species assumed): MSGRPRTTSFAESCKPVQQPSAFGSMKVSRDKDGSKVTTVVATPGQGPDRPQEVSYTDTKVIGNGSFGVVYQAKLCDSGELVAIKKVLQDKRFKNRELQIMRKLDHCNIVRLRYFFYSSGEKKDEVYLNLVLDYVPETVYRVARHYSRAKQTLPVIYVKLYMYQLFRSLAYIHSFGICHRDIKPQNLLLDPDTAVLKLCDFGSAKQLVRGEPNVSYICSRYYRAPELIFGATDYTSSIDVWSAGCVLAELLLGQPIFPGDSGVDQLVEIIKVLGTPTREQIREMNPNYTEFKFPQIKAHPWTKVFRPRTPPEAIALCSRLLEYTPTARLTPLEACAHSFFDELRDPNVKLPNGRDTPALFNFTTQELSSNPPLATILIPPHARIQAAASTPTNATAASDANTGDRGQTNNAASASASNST
Procedure: as §1, §2

ZDF fa/fa rats = experiment: Oral glucose tolerance test (OGTT); format: in vivo, rat; conditions: 5 mg/kg i.v. at −270 and −30 min, 2 g/kg oral glucose
Procedure: Test compound was administrated in 10-11 weeks old ZDF rats at 5 mg/kg i.v. at −270 and −30 min. At 0 min 2 g/kg oral glucose load was given and blood samples were collected at 15 min intervals to determine the blood glucose levels.
For the OGTT male ZDF fa/fa rats (Charles River, USA), 10-11 weeks old, were used. After 15 h fasting the animals were dosed intravenously with 5 mg/kg test compound in dosing vehicle, or with dosing vehicle (10% DMSO, 90% PEG-400) only at −270 and −30 min. At 0 min the rats were given 2 g/kg glucose by oral gavage. Plasma samples were taken before and every 15 min after the OGTT for determination of blood glucose.

PRAK = biological target: T4, PRAK (Homo sapiens, UniProt Q8IW41); experiment: Protein kinase panel selectivity screen, PRAK; format: biochemical; conditions: 1 μM compound; [ATP] 20 μM
T4 construct: Dundee University (panel)
T4 sequence (Q8IW41 whole entry, species assumed): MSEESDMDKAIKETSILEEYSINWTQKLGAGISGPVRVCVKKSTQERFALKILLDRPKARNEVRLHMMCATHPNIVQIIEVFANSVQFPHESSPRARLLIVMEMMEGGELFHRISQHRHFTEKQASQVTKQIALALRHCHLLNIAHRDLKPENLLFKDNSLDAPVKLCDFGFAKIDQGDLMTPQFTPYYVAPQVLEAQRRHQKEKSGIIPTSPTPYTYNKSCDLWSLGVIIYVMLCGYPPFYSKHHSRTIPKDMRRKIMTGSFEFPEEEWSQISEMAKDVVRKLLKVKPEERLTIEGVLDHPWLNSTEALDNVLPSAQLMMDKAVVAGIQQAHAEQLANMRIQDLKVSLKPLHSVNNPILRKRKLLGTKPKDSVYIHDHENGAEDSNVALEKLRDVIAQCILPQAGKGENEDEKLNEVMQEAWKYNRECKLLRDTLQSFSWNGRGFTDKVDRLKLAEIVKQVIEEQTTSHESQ
Procedure: as §1, §2

MKK1 = biological target: T5, MKK1 (Homo sapiens, UniProt Q02750); experiment: Protein kinase panel selectivity screen, MKK1; format: biochemical; conditions: 1 μM compound; [ATP] 5 μM
T5 construct: Dundee University (panel)
T5 sequence (Q02750 whole entry, species assumed): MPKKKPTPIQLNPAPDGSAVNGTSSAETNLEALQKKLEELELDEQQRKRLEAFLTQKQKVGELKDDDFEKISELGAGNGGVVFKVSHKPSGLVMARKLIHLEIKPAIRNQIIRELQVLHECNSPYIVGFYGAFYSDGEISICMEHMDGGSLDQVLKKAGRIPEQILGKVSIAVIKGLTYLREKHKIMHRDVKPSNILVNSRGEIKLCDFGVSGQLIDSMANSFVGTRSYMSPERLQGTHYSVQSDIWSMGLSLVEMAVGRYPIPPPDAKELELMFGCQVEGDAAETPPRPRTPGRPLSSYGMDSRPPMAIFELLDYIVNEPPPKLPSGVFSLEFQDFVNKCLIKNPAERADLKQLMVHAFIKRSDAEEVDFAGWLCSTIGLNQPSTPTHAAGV
Procedure: as §1, §2

T1 sequence (P11802 whole entry): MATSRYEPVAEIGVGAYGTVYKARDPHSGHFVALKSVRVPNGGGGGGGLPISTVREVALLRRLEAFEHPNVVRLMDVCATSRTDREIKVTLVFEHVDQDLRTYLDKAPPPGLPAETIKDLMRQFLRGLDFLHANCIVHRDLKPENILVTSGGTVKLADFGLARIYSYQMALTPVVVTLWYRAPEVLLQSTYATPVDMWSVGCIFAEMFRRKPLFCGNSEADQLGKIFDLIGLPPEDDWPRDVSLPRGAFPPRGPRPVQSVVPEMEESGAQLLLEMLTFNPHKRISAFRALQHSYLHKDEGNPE
T1 sequence (P24385 whole entry partner): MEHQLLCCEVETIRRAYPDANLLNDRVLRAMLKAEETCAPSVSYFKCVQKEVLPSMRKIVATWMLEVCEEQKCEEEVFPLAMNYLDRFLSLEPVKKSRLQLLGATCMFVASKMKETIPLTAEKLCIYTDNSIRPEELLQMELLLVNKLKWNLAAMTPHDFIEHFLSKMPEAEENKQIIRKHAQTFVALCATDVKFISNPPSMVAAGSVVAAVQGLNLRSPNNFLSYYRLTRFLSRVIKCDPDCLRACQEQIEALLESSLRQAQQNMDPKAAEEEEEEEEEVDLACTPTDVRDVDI

Q: How did the Ki (CDK4/cyclin D1) turn out when `Clc1ccc(Nc2nccc(-c3nccs3)n2)cn1` [Compound XIV, (6-Chloro-pyridin-3-yl)-(4-thiazol-2-yl-pyrimidin-2-yl)-amine] was run?
A: Its Ki is > 100 µM.

Q: And the “Fold selectivity for GSK3 over CDK4/cyclin D1” value (CDK4/cyclin D1; from Ki)?
A: The value was >6,250 fold.

Q: What about the IC50 (CDK4/cyclin D1; read-out: Kinase inhibition IC50 CDK4/D1) of the same compound?
A: Its IC50 is > 100 µM.

Q: And the “Activation of GS compared with 40 mM LiCl” value ([1]; HEK293 cells, 5 μM)?
A: Its value is “comparable to that induced by 40 mM LiCl”.

Q: And the “Activity of glycogen synthase (fractional velocity)” value ([1]; HEK293 cells, ratio of activity at 0.1 and 10 mM glucose-6-phosphate)?
A: The value was “increased the activity of glycogen synthase”.

Q: What about the EC50 ([1]; Homo sapiens, HEK293, from dose-response curves, read-out: EC50 activation of glycogen synthase) of the same compound?
A: The EC50 was 1.5 ± 0.6 µM.

Q: And the fold induction at 0.1 µM ([1]; Homo sapiens, HEK293 cells, 0.1 μM)?
A: The fold induction at 0.1 µM was 0.9.

Q: What about the fold induction at 0.5 µM ([1]; Homo sapiens, HEK293 cells, 0.5 μM) of the same compound?
A: The fold induction at 0.5 µM was 1.1.

Q: What about the fold induction at 1 µM ([1]; Homo sapiens, HEK293 cells, 1 μM) of the same compound?
A: The fold induction at 1 µM was 1.6.

Q: And the fold induction at 5 µM ([1]; Homo sapiens, HEK293 cells, 5 μM (Table 4))?
A: Its fold induction at 5 µM is 3.3.

Q: What about the fold induction at 5 µM ([1]; Homo sapiens, In HEK293 cells at [compound] = 5 μM (Table 2)) of the same compound?
A: Its fold induction at 5 µM is 3.7.

Q: What about the activity at 1 µM (SAPK2a/p38) of the same compound?
A: Its activity at 1 µM is 84 ± 7%.

Q: And the “Selectivity in the 29-kinase panel” value (GSK3b)?
A: The value was “highly selective for GSK3”.

Q: And the activity at 1 µM (GSK3b; [ATP] 5 μM)?
A: Its activity at 1 µM is 13 ± 5%.

Q: And the “Decrease of absolute AUC level (blood glucose)” value (ZDF fa/fa rats)?
A: Its value is 29%.

Q: And the “Decrease of reactive AUC level (blood glucose)” value (ZDF fa/fa rats)?
A: The value was 44%.

Q: What about the Glucose tolerance (ZDF fa/fa rats) of the same compound?
A: Its Glucose tolerance is “improved the glucose tolerance in ZDF rats significantly”.

Q: What about the activity at 1 µM (PRAK) of the same compound?
A: The activity at 1 µM was 83 ± 3%.

Q: And the activity at 1 µM (MKK1)?
A: The activity at 1 µM was 83 ± 4%.
